Experimental data reported in patent publication US20110105389A1 (priority 2009, published 2011).

What was measured:
[1] = molecular target: T1, GHS-R1a receptor (HEK293 cells expressing GHS-R1a receptor) (Homo sapiens, UniProt Q92847); assay: Fluorescence functional assay (ghrelin receptor), Method B2, agonist and antagonist mode; assay type: cell-based; conditions: functional activity as an antagonist at the ghrelin receptor, Methods B2 and B3
T1 construct: host or cells: HEK293
Summary of the method: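 Calcium flux read by ImageTrak epifluorescence in HEK293 cells stably expressing GHS-R1a, loaded 1 h at 37 °C with Calcium-3 dye; buffer HBSS/20 mM Hepes, pH 7.4, with probenecid and BSA. Agonists injected after 10 s baseline, read 50 s more; antagonists 3 min. Sigmoidal fits gave EC50 or IC50.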

[2] = system: rat stomach fundus strips; assay: Ex-vivo potency evaluation on the rat stomach fundus (inhibition of ghrelin-induced contractility), Method B10; conditions: EFS
Summary of the method: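 Male Wistar rat fundus strips in Krebs at 37 °C (5% CO2 in O2), 1.5 g resting tension, were subjected to EFS (0.5 ms pulses, 5 Hz, 70 V, 30 s every 3 min) with isometric tension recording. Responses were expressed as % of mean pre-drug EFS responses; IC50 for inhibiting ghrelin-induced contractility was determined.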

CYP3A4 = CYP3A4 (Homo sapiens, UniProt P08684); assay: biochemical
[3] = Pharmacokinetic analysis (intravenous and oral), Method B9; assay type: in vivo; conditions: plasma; Table 10b; 2 mg/mL intravenous typically employed
Summary of the method: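 Compound concentration was typically 2 mg/mL for intravenous and 8 mg/mL for oral dosing. PK parameters such as elimination half-life and total plasma clearance were derived.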

CYP2D6 = CYP2D6 (Homo sapiens, UniProt P10635); assay: biochemical
Chain of CYP2D6 (P10635 whole entry): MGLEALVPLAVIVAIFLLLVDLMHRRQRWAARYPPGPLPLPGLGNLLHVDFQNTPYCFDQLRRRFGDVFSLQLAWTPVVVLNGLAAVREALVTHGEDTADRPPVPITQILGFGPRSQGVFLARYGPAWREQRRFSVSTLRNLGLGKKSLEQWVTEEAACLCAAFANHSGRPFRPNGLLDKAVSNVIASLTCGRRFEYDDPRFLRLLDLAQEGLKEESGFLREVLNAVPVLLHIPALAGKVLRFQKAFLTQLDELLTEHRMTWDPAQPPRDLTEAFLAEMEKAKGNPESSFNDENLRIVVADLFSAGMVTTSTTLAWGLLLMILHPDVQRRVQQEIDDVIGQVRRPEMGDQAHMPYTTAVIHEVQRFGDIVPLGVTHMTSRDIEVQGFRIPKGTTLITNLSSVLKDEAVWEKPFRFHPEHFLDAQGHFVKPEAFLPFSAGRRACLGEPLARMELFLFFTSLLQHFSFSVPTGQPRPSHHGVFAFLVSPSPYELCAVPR

T1 sequence (Q92847 whole entry): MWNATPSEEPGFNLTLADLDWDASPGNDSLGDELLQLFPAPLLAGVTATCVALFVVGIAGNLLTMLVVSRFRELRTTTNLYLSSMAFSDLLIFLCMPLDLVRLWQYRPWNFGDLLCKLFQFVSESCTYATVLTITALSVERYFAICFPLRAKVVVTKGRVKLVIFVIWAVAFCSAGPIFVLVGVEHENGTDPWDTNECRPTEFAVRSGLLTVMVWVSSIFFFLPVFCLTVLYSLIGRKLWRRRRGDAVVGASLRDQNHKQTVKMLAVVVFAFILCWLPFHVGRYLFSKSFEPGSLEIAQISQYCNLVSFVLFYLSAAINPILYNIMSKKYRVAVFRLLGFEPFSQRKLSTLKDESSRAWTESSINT
Chain of CYP3A4 (P08684 whole entry): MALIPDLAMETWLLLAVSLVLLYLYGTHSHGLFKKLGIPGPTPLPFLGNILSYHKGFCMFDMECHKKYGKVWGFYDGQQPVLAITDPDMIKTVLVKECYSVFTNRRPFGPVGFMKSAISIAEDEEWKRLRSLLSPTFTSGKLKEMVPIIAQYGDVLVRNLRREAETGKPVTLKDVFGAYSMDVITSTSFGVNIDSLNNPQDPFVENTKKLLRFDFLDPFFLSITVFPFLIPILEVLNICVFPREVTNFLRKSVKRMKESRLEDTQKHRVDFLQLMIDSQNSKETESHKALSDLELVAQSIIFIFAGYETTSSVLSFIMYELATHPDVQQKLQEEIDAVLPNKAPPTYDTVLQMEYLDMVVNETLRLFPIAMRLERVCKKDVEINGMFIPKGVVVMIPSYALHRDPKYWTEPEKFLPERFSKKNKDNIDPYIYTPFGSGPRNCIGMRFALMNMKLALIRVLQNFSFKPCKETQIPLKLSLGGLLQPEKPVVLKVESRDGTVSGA

| SMILES | Antagonist Activity [1] | IC50 [2] | IC50 (CYP3A4) | clearance [3] | half-life [3] | IC50 (CYP2D6) |
| --- | --- | --- | --- | --- | --- | --- |
| CC(O)[C@H]1C(=O)N[C@H](Cc2ccccc2)C(=O)NCC#Cc2ccccc2OCCN[C@@H](C2(C)CC2)C(=O)N1C (stereo partly drawn) [Compound 1878] | A (A <1 nM) | 0.03 µM | 11.6 µM | 35 ± 1 mL/min/kg | 2.07 ± 0.317 h | 45.3 µM |
| CC(O)[C@H]1C(=O)N[C@H](Cc2ccccc2)C(=O)NCC#Cc2ccc(F)cc2OCCN[C@@H](C2(C)CC2)C(=O)N1C (stereo partly drawn) [Compound 1918] | B (B = 1-10 nM) | 0.026 µM | 16.3 µM | 14 ± 7 mL/min/kg | 1.9 ± 0.883 h | 8.1 µM |
